Source: patent publication US11566212B2, “Integrated microfluidic system for culturing and testing” (priority 2016, dated 2023)
Read-outs that look alike come from different tables or passages of the source.

Tests used:
[1] = not given; remark: listed apart in the source
[2] = Franz cells, silicone membrane soaked in isopropyl myristate
[3] = Diffusion chips, silicone membrane soaked in isopropyl myristate

For Cn1c(=O)c2c(ncn2C)n(C)c1=O [caffeine], the Steady state flux (24 h) was 13 μg/cm^2 h, the “Dm (diffusion coefficient)” value [2] was 1.3 10^−3 cm^2/h and the “tlag (lag time)” value [2] was 0.52 h. The Steady state flux ([1]; 24 h) was 13 μg/cm^2 h, the “Dm (diffusion coefficient)” value [1, 3] was 1.8 10^−3 cm^2/h and the “tlag (lag time)” value [1, 3] was 0.37 h.
